From patent US10918654B1, “Rutin compositions” (Alps Pharmaceutical Ind. Co., Ltd., priority 2019, dated 2021)

Assay: Stability of the flavonoid in aqueous L-arginine/sodium ascorbate solution at 50° C., intact amount by HPLC
Assay type: physicochemical
Conditions: for amount of intact flavonoid remaining, of the initial amount in the solution: dissolved in water with L-arginine and sodium ascorbate, HPLC
Procedure: A composition containing rutin, L-arginine, and ascorbate was prepared in water by mixing 0.0071 mol rutin with an aqueous solution containing 0.020 mol L-arginine, heating the mixture to 80° C. until the rutin dissolved completely, and adding 0.0010 mol sodium ascorbate.
After cooling the above solution, the stability of rutin was tested by heating the mixture to 50° C. and quantifying the amount of intact rutin remaining by HPLC after 0 h, 5 h, and 24 h.

amount of intact flavonoid remaining, of the initial amount in the solution (5 h at 50° C.): 100%
amount of intact flavonoid remaining, of the initial amount in the solution (24 h at 50° C.): 97.2%
flavonoid degraded (after 24 h at 50° C., with L-arginine and sodium ascorbate): 2.8%
SMILES: C[C@@H]1O[C@@H](OC[C@H]2O[C@@H](Oc3c(-c4ccc(O)c(O)c4)oc4cc(O)cc(O)c4c3=O)[C@H](O)[C@@H](O)[C@@H]2O)[C@H](O)[C@H](O)[C@H]1O [rutin]
